Results published in article PMC12797170, “Potent Competitive Inhibitors of Ecto-5′-nucleotidase (CD73) based on 6‑(Het)aryl-7-deazapurine Ribonucleoside 5′‑O‑Bisphosphonates” (ACS Pharmacology & Translational Science, 2025).
In brackets after ≈: the same amount, converted by molar mass.

How the values were obtained:
[1] = Plasma protein binding, mouse plasma; type: in vitro ADME; conditions: mouse, plasma, mouse plasma protein binding; read-out: PPB (m) (converted)
Procedure: (§1) Plasma protein binding of the investigated compounds was determined using equilibrium dialysis in single-use Rapid Equilibrium Dialysis devices with an 8 kDa molecular weight cutoff (Thermo Fisher Scientific), following the manufacturer’s protocol. In brief, 50 μL of undiluted human plasma (Biowest), spiked with the test compound at a final concentration of 100 μM, was added to the sample chamber, while 300 μL of phosphate-buffered saline (PBS) was placed in the buffer chamber. Devices were incubated for 4 h at 37 °C with gentle shaking.
(§2) After dialysis, 7.5 μL aliquots from both the plasma and buffer chambers were transferred directly into wells of a 384-well plate. To equalize the matrices for downstream processing, 7.5 μL of PBS was added to each plasma aliquot, and 7.5 μL of plasma was added to each buffer aliquot. Proteins were precipitated by adding four volumes of ice-cold methanol to each well, followed by thorough mixing and incubation at – 20 °C for 30 min. Plates were then stored overnight at 8 °C. Prior to analysis, the plate was centrifuged at 2,000 × g for 20 min at 8 °C. […] The fraction of unbound compound was calculated using the following equations: %Free=c(bufferchamber)/c(plasmachamber)*100% %Bound=100%−%Free

[2] = Plasma protein binding, equilibrium dialysis, human plasma; type: in vitro ADME; conditions: undiluted plasma, human plasma protein binding, read-out: PPB (hu) (converted)
Procedure: as §1, §2

[3] = tested on: HepG2; experiment: In vitro cytotoxic activity; type: cell-based; conditions: Homo sapiens
Procedure: (§3) All the compounds were also tested for their in vitro cytotoxic activity on a small panel of four cancer cell lines (CCRF-CEM, HepG2, HeLa S3, HL-60) and nonmalignant human dermal fibroblasts (NHDF).

[4] = tested on: nonmalignant human dermal fibroblasts (NHDF); experiment: In vitro cytotoxic activity; type: cell-based
Procedure: as §3

[5] = tested on: HL-60; experiment: In vitro cytotoxic activity; type: cell-based; conditions: Homo sapiens
Procedure: as §3

[6] = tested on: CCRF-CEM; experiment: In vitro cytotoxic activity; type: cell-based; conditions: Homo sapiens
Procedure: as §3

[7] = tested on: HeLa S3; experiment: In vitro cytotoxic activity; type: cell-based; conditions: Homo sapiens
Procedure: as §3

[8] = in vitro; conditions: human, plasma
[9] = in vitro; conditions: mouse, plasma
[10] = Kinetic solubility in PBS; type: physicochemical; conditions: phosphate-buffered saline, pH 7.4, aqueous buffer, kinetic from dmso stock
Procedure: Test compounds were prepared as 10 mM stock solutions in DMSO and diluted in phosphate-buffered saline (PBS, pH 7.4) to a 100 μM solution, which was then aliquoted in duplicate. The duplicate samples were incubated in Multiscreen PCF Filter Plates (Merck Millipore) with sealed bottom at room temperature on a shaker for 2 h to allow equilibration. Following incubation, the samples were centrifuged into nonsterile, flat-bottom 96-well plates at 2,200 RCF for 12 min. Supernatants were then diluted 1:99 in a solution of 50% acetonitrile containing 0.1% DMSO. The diluted samples were transferred to 384-well Echo plates, which contained prespotted calibration standards prepared by Echo transfer of 10 mM and 1 mM DMSO stock solutions, resulting in calibration points ranging from 0.05 to 4 μM. Samples and standards were subsequently analyzed by Echo-MS.

[11] = molecular target: T1, recombinant human CD73 (hCD73) (Homo sapiens, UniProt P21589); experiment: CD73 activity assay on recombinant human CD73; type: biochemical; conditions: ΔGexp = RT ln Ki
T1 sequence (P21589 27-574): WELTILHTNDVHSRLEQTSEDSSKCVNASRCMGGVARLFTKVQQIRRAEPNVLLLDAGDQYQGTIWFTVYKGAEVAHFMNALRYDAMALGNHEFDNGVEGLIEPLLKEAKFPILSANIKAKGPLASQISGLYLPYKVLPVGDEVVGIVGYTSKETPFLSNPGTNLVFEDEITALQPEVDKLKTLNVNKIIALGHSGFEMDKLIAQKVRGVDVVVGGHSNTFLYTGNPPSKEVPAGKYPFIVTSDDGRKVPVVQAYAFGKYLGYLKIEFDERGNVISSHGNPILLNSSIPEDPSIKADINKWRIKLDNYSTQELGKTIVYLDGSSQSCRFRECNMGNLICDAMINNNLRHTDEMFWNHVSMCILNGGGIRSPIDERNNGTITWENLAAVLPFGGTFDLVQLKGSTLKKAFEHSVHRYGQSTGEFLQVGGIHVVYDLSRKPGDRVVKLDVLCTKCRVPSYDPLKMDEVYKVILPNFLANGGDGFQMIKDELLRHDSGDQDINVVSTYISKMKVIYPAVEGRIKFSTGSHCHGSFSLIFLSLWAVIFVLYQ

[12] = Microsomal stability assay, mouse liver microsomes; type: in vitro ADME; conditions: for Mics (m) comp remaining 60 min: 10 μM; for microsomal CLint at 10 µM: pooled liver microsomes, pH 7.4, read-out: Mics (m) CLint
[13] = Microsomal stability assay, human liver microsomes; type: in vitro ADME; conditions: for Mics (hu) comp remaining 60 min: 10 μM; for microsomal CLint at 10 µM: pooled liver microsomes, pH 7.4, read-out: Mics (hu) CLint

Row | SMILES | fraction unbound at 4 h, 100 µM [1] | fraction unbound at 4 h, 100 µM [2] | IC50 [3] | IC50 [4] | IC50 [5] | IC50 [6] | IC50 [7] | half-life at 10 µM [8] | half-life at 10 µM [9] | solubility at 2 h [10] | dG_exp, experimental binding free energy [11] | Mics (m) comp remaining 60 min [12] | microsomal CLint at 10 µM [12] | Mics (hu) comp remaining 60 min [13] | microsomal CLint at 10 µM [13]
1 | O=P(O)(O)CP(=O)(O)OC[C@H]1O[C@@H](n2ccc3c(-c4ccco4)ncnc32)[C@H](O)[C@@H]1O [4A.1, [(5-{[4-(Furan-2-yl)-7H-pyrrolo[2,3-d]pyrimidin-7-yl]-β-D-ribofuranosyl}oxy)phosphonomethyl]phosphonic Acid] | 0.699 | 0.053 | > 10 µM | > 10 µM | 3.7 µM | > 10 µM | > 10 µM | > 2 h | > 2 h | 25 µM (≈ 11.9 µg/mL) | –12.9 kcal/mol | – | – | – | –
2 | O=P(O)(O)CP(=O)(O)OC[C@H]1O[C@@H](n2ccc3c(-c4ccoc4)ncnc32)[C@H](O)[C@@H]1O [4A.2] | 0.872 | 0.162 | > 10 µM | > 10 µM | 2.8 µM | > 10 µM | > 10 µM | > 2 h | > 2 h | 97 µM (≈ 46.1 µg/mL) | –12.5 kcal/mol | – | – | – | –
3 | O=P(O)(O)CP(=O)(O)OC[C@H]1O[C@@H](n2ccc3c(-c4cccs4)ncnc32)[C@H](O)[C@@H]1O [4A.3] | 0.535 | 0.081 | > 10 µM | > 10 µM | 4.2 µM | 9.9 µM | > 10 µM | > 2 h | > 2 h | 76 µM (≈ 37.3 µg/mL) | –13.1 kcal/mol | – | – | – | –
4 | O=P(O)(O)CP(=O)(O)OC[C@H]1O[C@@H](n2ccc3c(-c4ccccc4)ncnc32)[C@H](O)[C@@H]1O [4A.5] | 0.788 | 0.095 | > 10 µM | > 10 µM | 3.7 µM | > 10 µM | > 10 µM | > 2 h | > 2 h | 80 µM (≈ 38.8 µg/mL) | –12.6 kcal/mol | – | – | – | –
5 | O=P(O)(O)CP(=O)(O)OC[C@H]1O[C@@H](n2ccc3c(-c4cccc5c4OCCC5)ncnc32)[C@H](O)[C@@H]1O [4A.13] | 0.594 | 0.108 | > 10 µM | > 10 µM | > 10 µM | > 10 µM | > 10 µM | > 2 h | > 2 h | 81 µM (≈ 43.9 µg/mL) | –12.8 kcal/mol | 94% | 1 µL/min/mg | 96% | 1 µL/min/mg
6 | O=P(O)(O)CP(=O)(O)OC[C@H]1O[C@@H](n2ccc3c(-c4ccc5c(c4)CCO5)ncnc32)[C@H](O)[C@@H]1O [4A.14] | 0.547 | 0.062 | 6.3 µM | 5.6 µM | 6.6 µM | > 10 µM | > 10 µM | > 2 h | > 2 h | > 100 µM | –12.9 kcal/mol | 94% | 3 µL/min/mg | 112% | < 1 µL/min/mg
7 | O=P(O)(O)CP(=O)(O)OC[C@H]1O[C@@H](n2ccc3c(-c4cccc5ccoc45)ncnc32)[C@H](O)[C@@H]1O [4A.15] | 0.542 | 0.036 | 8.7 µM | 5.7 µM | 8.6 µM | > 10 µM | > 10 µM | > 2 h | > 2 h | 76 µM (≈ 39.9 µg/mL) | –13.4 kcal/mol | 102% | < 1 µL/min/mg | 118% | < 1 µL/min/mg
8 | O=P(O)(O)CP(=O)(O)OC[C@H]1O[C@@H](n2ccc3c(-c4ccc5ncccc5c4)ncnc32)[C@H](O)[C@@H]1O [4A.19] | 0.685 | 0.048 | > 10 µM | > 10 µM | 3.1 µM | > 10 µM | > 10 µM | > 2 h | > 2 h | 85 µM (≈ 45.6 µg/mL) | –12.7 kcal/mol | 105% | < 1 µL/min/mg | 94% | < 1 µL/min/mg
9 | O=P(O)(O)CP(=O)(O)OC[C@H]1O[C@@H](n2ccc3c(-c4cnc5ccccc5c4)ncnc32)[C@H](O)[C@@H]1O [4A.20] | 0.536 | 0.054 | > 10 µM | > 10 µM | > 10 µM | > 10 µM | > 10 µM | > 2 h | > 2 h | > 100 µM | –12.8 kcal/mol | 110% | < 1 µL/min/mg | 88% | 2 µL/min/mg
10 | O=P(O)(O)CP(=O)(O)OC[C@H]1O[C@@H](n2ccc3c(-c4ccc5cnccc5c4)ncnc32)[C@H](O)[C@@H]1O [4A.21] | 0.737 | 0.054 | > 10 µM | > 10 µM | 5.9 µM | > 10 µM | > 10 µM | > 2 h | > 2 h | > 100 µM | –13.1 kcal/mol | 79% | 8 µL/min/mg | 95% | 3 µL/min/mg
11 | O=P(O)(O)CP(=O)(O)OC[C@H]1O[C@@H](n2ccc3c(-c4ccc5cncnc5c4)ncnc32)[C@H](O)[C@@H]1O [4A.22] | 0.948 | 0.113 | > 10 µM | > 10 µM | 4.8 µM | 9.9 µM | > 10 µM | > 2 h | > 2 h | 66 µM (≈ 35.5 µg/mL) | –12.9 kcal/mol | 101% | < 1 µL/min/mg | 92% | 4 µL/min/mg
12 | CC1(C)Cc2cc(-c3nc(Cl)nc4c3ccn4[C@@H]3O[C@H](COP(=O)(O)CP(=O)(O)O)[C@@H](O)[C@H]3O)ccc2O1 [7B.30] | 0.229 | ≤ 0.01 | > 10 µM | > 10 µM | > 10 µM | > 10 µM | > 10 µM | > 2 h | > 2 h | 86 µM (≈ 50.7 µg/mL) | –15.6 kcal/mol | 88% | 6 µL/min/mg | 102% | < 1 µL/min/mg
